Results from patent publication US7067257B2, “Thyrotropin-releasing hormone analogues and their therapeutic applications” (University of Florida, priority 2002, dated 2006).
Square brackets hold non-standard residues; d marks the D form. Peptide text beside a SMILES is read from it. pGlu = O=C1CC[C@@H](C(=O)O)N1

Tests used:
Swiss Webster mice [1] = test: duration of analeptic action, antagonism of barbituate-induced anesthesia (Example 6); type: in vivo; conditions: 15 μmol/kg i.v.; pentobarbital injection at 60 minutes compared to after 10 minutes
Procedure: A pharmacological paradigm was used to assess the potency of the subject TRH analogues as central nervous system agents administered to animals in their prodrug forms in vivo. The antagonism on the barbituate-induced anesthesia was explored to survey the extent of activation of cholinergic neurons by the test compounds. Ten to sixteen Swiss Webster mice (30±2 g) were used in each group. Test compounds were dissolved in degassed DMSO. The vehicle alone (1.5 ml/kg body weight) or equimolar doses of TRH as control and prodrugs according to the present invention (15 μmol/kg body weight) were injected through the tail vein. After 10 minutes, each animal received an intraperitoneal (i.p.) injection of sodium pentobarbital at dose 60 mg/kg bodyweight. An increase in the time after which the animals were injected with TRH and a TRH analogue according to the present invention and after the cholinergic challenge was made was increased. The sleeping time was recorded as the time elapsed from the onset of the loss of righting reflex until the reflex was regained.

[2] = rat, human, in vivo; cited from earlier work
Swiss Webster mice [3] = test: antagonism of barbiturate-induced anesthesia in mice (Example 9); type: in vivo; conditions: 10 μmole/kg i.v.; sodium pentobarbital 60 mg/kg i.p. after 10 minutes
Procedure: The antagonism of the barbiturate-induced anesthesia in mice was used to assess the increase in the access of the TRH analogues of the present invention to the central nervous system compared to the parent TRH-like tripeptide (pGlu-Glu-Pro-NH2). In this assay related to the analeptic activity of the TRH-like tripeptide, 10 to 18 Swiss Webster mice (30±2 g body weight) were used in each group. The vehicle alone (1.5 ml/kg body weight) or equimolar doses of TRH-like tripeptide as control and the TRH analogues of Formula I (10 μmole/kg body weight) were injected through the tail vein (i.v.). In another group of animals, the TRH-like tripeptide was administered at 10-times higher dose (100 μmol/kg) for comparison. After 10 minutes, each animal received an intraperitoneal (i.p.) injection of sodium pentobarbital at a dose of 60 mg/kg body weight. The sleeping time was recorded from the onset of the loss of righting reflex until the reflex was regained.
Based on measuring analeptic activity in the animal model selected.

[4] = in vitro stability in mouse brain homogenate; type: in vitro ADME; conditions: mouse brain homogenate (20% w/v)
Procedure: In vitro stability studies in mouse brain homogenate (20% w/v) were conducted at 100 μM concentration of TRH analogues of Formula I wherein R^3 is an ester moiety. Analytical reversed-phase gradient HPLC with UV detection (λ=214 nm) was used to monitor the decline in the concentration in the compound added. The half-lives (t1/2) were 20 and 22 minutes for the TRH analogues derived from primary alcohols and 25 minutes and 70 minute for TRH analogues derived from […]. TRH analogues of the subject invention in which R^3 is benzyl ester was discovered to be relatively stable in the tissue (t1/2>2 hours).

In the case of NC(=O)[C@@H]1CCCN1C(=O)[C@H](Cc1cnc[nH]1)NC(=O)[C@@H]1CCC(=O)N1 [TRH, L-pyroglutamyl-L-histidyl-L-prolinamide], the “loss of central nervous system (analeptic) activity” value (Swiss Webster mice [1]) is listed as “over 50%” and the biological half-life [2] is listed as 4–6 minutes.

For “[pGlu]-Glu-Pro-NH2 [TRH-like tripeptide]”, the sleeping time (Swiss Webster mice [3]) was 65±3 minutes SEM.

In the case of NC(=O)[C@@H]1CCCN1C(=O)[C@H](CCC(=O)OCc1ccccc1)NC(=O)[C@@H]1CCC(=O)N1 [benzyl ester] (HELM PEPTIDE1{[Glp].E.P.[am]}|CHEM1{[c1ccc(CO[*:1])cc1]}$PEPTIDE1,CHEM1,2:R3-1:R1$$$V2.0), the half-life at 100 μM [4] was > 2 h.
